Results from patent US20020031795A1, “Nitrocoumarins for detecting all micro-organisms” (priority 1998, published 2002).

How the values were obtained:
[1] = test system: E. coli (NCTC strain 10418); test: Fluorescent signal generated by E. coli reducing nitrocoumarins (nitroaryl reductase activity); format: cell-based, Escherichia coli; conditions: 0.105 mmol/l; for Extent of reduction of the substrate (in words): end of the four-hour assay
Procedure: (§1) A sample of the 7-nitrocoumarin derivative is dissolved in 4 ml of hot, distilled water. The mass dissolved to make the stock solution is such that the final concentration of the compound in the assay is 0.105 mmol/l. This solution is added to 96 ml of Mueller-Hinton broth and the mixture is sterile-filtered.
(§2) The E. coli was grown for 24 hours at 35° C. on Columbia agar supplemented with sheep blood. The bacteria were then resuspended in sterile, distilled water and their density was adjusted to 0.5 on the MacFarland scale (i.e. about 10^8 cells/ml). This suspension was then diluted 100-fold in sterile Mueller-Hinton broth (i.e. to a final density of about 10^6 cells/ml).
(§3) Fifty microliters of each nitrocoumarin solution plus 50 μl of bacterial suspension were then added to the wells of a microtiter plate. The plates were incubated at 35° C. and the optical density and fluorescence of each well was read every 30 min for a total of 4 hours. Optical density (690 nm) readings were made using an Anthos 2001 spectrophotometer (Labtech International Limited), and fluorescence (excitation at 365 nm and emission at 440 nm) readings were made on a Biolite F1 2001 fluorometer (Labtech International Limited).
(§4) The effect of the concentration of 7-nitrocoumarin-3-carboxylic acid on the sensitivity of the assay to detect E. coli (NCTC strain 10418) was investigated at concentrations of the indicator ranging from 0 to 0.262 mmol/l. All other conditions were identical to those described in section A above.

[2] = test system: Escherichia coli (NCTC 10418); test: Growth of E. coli in Mueller-Hinton broth in the presence of nitrocoumarins (optical density 690 nm); format: cell-based; conditions: 0.105 mmol/l
Procedure: as §1, §2, §3, §4

Compound | Fluorescent signal ([1]; 0 min) | Fluorescent signal ([1]; 30 min) | Fluorescent signal ([1]; 60 min) | Fluorescent signal ([1]; 90 min) | Fluorescent signal ([1]; 120 min) | Fluorescent signal ([1]; 150 min) | Fluorescent signal ([1]; 180 min) | Fluorescent signal ([1]; 210 min) | Fluorescent signal ([1]; 240 min) | Optical density (690 nm) ([2]; 0 min) | Optical density (690 nm) ([2]; 30 min) | Optical density (690 nm) ([2]; 60 min) | Optical density (690 nm) ([2]; 90 min) | Optical density (690 nm) ([2]; 120 min) | Optical density (690 nm) ([2]; 150 min) | Optical density (690 nm) ([2]; 180 min) | Optical density (690 nm) ([2]; 210 min) | Optical density (690 nm) ([2]; 240 min) | also measured
CCOC(=O)c1cc2ccc([N+](=O)[O-])cc2oc1=O [ethyl-7-nitrocoumarin-3-carboxylate] | 0 | 173 | 814 | 1703 | 2813 | 4126 | 5646 | 7370 | 10859 | 0.000 | −0.005 | −0.008 | −0.008 | −0.006 | 0.000 | 0.018 | 0.046 | 0.116 | 
COC(=O)c1cc2ccc([N+](=O)[O-])cc2oc1=O [methyl-7-nitrocoumarin-3-carboxylate] | 0 | 174 | 702 | 1297 | 2035 | 2905 | 3946 | 5005 | 6668 | 0.000 | −0.001 | −0.001 | 0.000 | 0.000 | 0.002 | 0.006 | 0.014 | 0.032 | Extent of reduction of the substrate (in words) [1]: least reduced; Inhibitory effect on the growth of E. coli (in words) [2]: most powerful inhibitors; OD readings reduced compared with the untreated control [2]: 92%
O=C(c1cc2ccc([N+](=O)[O-])cc2oc1=O)N1CCOCC1 [7-nitrocoumarin-3-carboxymorpholide] | 0 | 180 | 665 | 1376 | 2414 | 3796 | 5817 | 8454 | 12263 | 0.000 | −0.002 | −0.001 | 0.001 | 0.005 | 0.014 | 0.037 | 0.068 | 0.109 | 
CC(=O)c1c(C)c2ccc([N+](=O)[O-])cc2oc1=O [3-acetyl-4-methyl-7-nitrocoumarin] | 0 | 40 | 390 | 992 | 1804 | 2811 | 4090 | 5576 | 8017 | 0.000 | −0.003 | −0.002 | −0.001 | 0.002 | 0.008 | 0.023 | 0.051 | 0.110 | 
O=c1ccc2ccc([N+](=O)[O-])cc2o1 [7-nitrocoumarin] | 0 | 77 | 519 | 1447 | 2915 | 4713 | 7160 | 10182 | 14189 | 0.000 | −0.002 | 0.000 | 0.002 | 0.009 | 0.025 | 0.072 | 0.133 | 0.211 | 
Cc1cc(=O)oc2cc([N+](=O)[O-])ccc12 [4-methyl-7-nitrocoumarin] | 0 | 15 | 302 | 974 | 2008 | 3299 | 5097 | 7545 | 11125 | 0.000 | 0.000 | 0.002 | 0.004 | 0.010 | 0.024 | 0.055 | 0.113 | 0.175 | 
CCCC(=O)c1cc2ccc([N+](=O)[O-])cc2oc1=O [3-butyryl-7-nitrocoumarin] | 0 | 64 | 387 | 894 | 1538 | 2344 | 3329 | 4642 | 6845 | 0.000 | 0.001 | 0.005 | 0.007 | 0.009 | 0.012 | 0.015 | 0.039 | 0.096 | Extent of reduction of the substrate (in words) [1]: least reduced; Inhibitory effect on the growth of E. coli (in words) [2]: most powerful inhibitors
